Earlier results in patent US20240033223A1 (SICHUAN CREDIT PHARMACEUTICAL CO., LTD, priority 2020, published 2024).

Details: aqueous preparation (U.S. Pat. No. 4,925,860)

Solubility in water: water-insoluble
Structure (SMILES): O=C1NC(=O)C(c2ccccc2)(c2ccccc2)N1 [Impurity C, Phenytoin]
